Reference: patent publication US20240352029A1, “CDK Inhibitors And Their Use As Pharmaceuticals” (Prelude Therapeutics Incorporated, priority 2023, published 2024)

What was measured:
OVCAR3 p-RB = experiment: pRB ICW assay in OVCAR3 cells; type: cell-based; conditions: Homo sapiens, OVCAR-3, 2 hours incubation with compound
Method: pRB ICW Assay in OVCAR3 Cells
OVCAR3 cells were maintained in RPMI (Corning, Catalog #: 10-040-CV) supplemented with 10% v/v FBS (Gibco, Catalog #: 26140-079), 1% v/v Penicillin Streptomycin (Gibco, Catalog #15140-122.) OVCAR3 cells grown at log phase were trypsinized, counted, and resuspended in fresh medium to reach a final density of 6.7e4 cells/ml and 75 μL of culture were dispensed into a 384-well plate (Falcon, cat #353962) using Multidrop Combi dispenser (Thermo Scientific). The next day, compounds were dispensed as a 9-point, ½ log serial dilution using a Tecan digital dispenser (D300e), and cells were incubated with compound for 2 hours in a humidified incubator at 37° C. A reference compound at a final concentration of 10 μM was used as a control for maximum inhibition. Each compound was tested in duplicates in each experiment. At the end of the incubation, 25 μl of 16% paraformaldehyde (Electron Microscopy, cat #15710) was slowly added to each well and the plate was incubated at room temperature (RT) for 30 minutes to fix cells. Cells were then permeabilized by incubating with 50 μl/well of wash buffer (1×PBS with 0.1% Triton X-100) 5×5 minutes, followed by 1 hour blocking with 30 μl/well of Odyssey blocking buffer (Li—COR, cat #927-40000), all at RT. Anti-phosphor RB antibody (Cell signaling 8516S) was diluted 1:1000 in Odyssey blocking buffer and 20 μl was added to all wells and incubated overnight in 4° C. with gently rocking. The next day, cells were washed 5×5 min with 50 μl/well of wash buffer, followed with 1 hour incubation with secondary antibody and DRAQ5 diluted in Odyssey blocking buffer (1:500 dilution for secondary antibody and 1:2000 dilution for DRAQ5), 5×5 min washes, and one last wash with water. Plates were dried in 37° C. oven for 5 min and scanned using Li—COR Odyssey CLx imaging system to acquire intensities at 700 and 800 nm channels.

CDK2/Cyclin E2 = CDK2/Cyclin E2 (Homo sapiens, UniProt P24941); experiment: CDK2/CyclinE2 enzymatic activity assay (TR-FRET); type: biochemical; conditions: ATP 1 mM final, read-out: CDK2_E1 IC50
Method: CDK2/CyclinE2 Enzymatic Activity Assay
(§1) The inhibitory activity of compounds was evaluated in vitro using TR-FRET assay with white 384-well low volume microplate (Greiner Bio-One). CDK2/Cyclin E2 catalyzed phosphorylation of peptide in the presence and absence of compounds was measured and used in IC50 determination. Recombinant protein complex CDK2/Cyclin E2, expressed from insect cell, was purchased from ProQinase. Testing compounds were dissolved in DMSO at 1 mM and tested in 9-dose IC50 mode. The reaction mixture was prepared by mixing CDK2/CyclinE2 (1 nM final), ULight-4E-BP1 (50 nM final, Perkinelmer, TRF0128-D), and ATP (1 mM final) in assay buffer (20 mM of HEPES pH 7.4, 1 mM of EGTA, 0.05% BSA, 0.005% Tween 20, and 1 mM TCEP). The compound of interest in DMSO was added to each well in 3-fold serial dilution by dispenser (TECAN D300E) to make a 9.9 μL of reaction mixture. After 20 minutes preincubation at room temperature, 0.1 μL MgCl2 (10 mM final) was added to initiate the reaction. Following a 45 minutes incubation at 37° C., the reaction was stopped by addition of 2 μL of quenching buffer consisting of Lance detection buffer (Perkinelmer CR97-100C), LANCE Ultra Europium-anti-P-4E-BP1 (Perkinelmer, TRF0216-D), EDTA, and incubate at room temperature for additional 60 minutes in dark. The reaction signal was measured by Envision multimode plate reader (PerkinElmer, 2102-0010). IC50 values were determined by fitting the data to the standard 4 parameters with Hill Slope using GraphPad Prism software.

CDK4/Cyclin D1 = molecular target: T1, CDK4/Cyclin D1 (Homo sapiens, UniProt P11802); experiment: CDK4/CyclinD1 enzymatic activity assay (TR-FRET); type: biochemical; conditions: ATP 2 mM final, read-out: CDK4_D1 IC50
T1 construct: purchased ProQinase; host or cells: insect cell
Method: CDK4/CyclinD1 Enzymatic Activity Assay
as §1, with “Bio-One). CDK4/Cyclin D1” for “Bio-One). CDK2/Cyclin E2”, “complex CDK4/Cyclin D1,” for “complex CDK2/Cyclin E2,”, “mixing CDK4/CyclinD1” for “mixing CDK2/CyclinE2”, “ULight-4E-BP1 (100” for “ULight-4E-BP1 (50”, “ATP (2” for “ATP (1”

T1 sequence (P11802 whole entry): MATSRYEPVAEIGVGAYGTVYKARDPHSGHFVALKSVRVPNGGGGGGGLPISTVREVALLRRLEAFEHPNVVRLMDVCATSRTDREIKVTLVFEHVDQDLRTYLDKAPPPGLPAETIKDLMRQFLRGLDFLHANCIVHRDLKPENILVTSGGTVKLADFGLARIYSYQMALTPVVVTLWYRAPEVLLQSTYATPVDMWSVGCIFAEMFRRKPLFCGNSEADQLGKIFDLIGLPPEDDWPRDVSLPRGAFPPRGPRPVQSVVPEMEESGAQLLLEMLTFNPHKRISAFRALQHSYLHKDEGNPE
T1 sequence (P24385 whole entry partner): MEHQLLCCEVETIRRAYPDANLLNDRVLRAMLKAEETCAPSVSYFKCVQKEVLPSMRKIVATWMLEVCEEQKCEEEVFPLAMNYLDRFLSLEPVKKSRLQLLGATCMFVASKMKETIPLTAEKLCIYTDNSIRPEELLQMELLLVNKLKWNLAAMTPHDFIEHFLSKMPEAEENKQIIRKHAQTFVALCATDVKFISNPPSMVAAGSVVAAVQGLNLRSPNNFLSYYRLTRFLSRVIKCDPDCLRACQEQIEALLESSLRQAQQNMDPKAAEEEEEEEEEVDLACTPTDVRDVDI

IC50 (OVCAR3 p-RB) | IC50 (CDK2/Cyclin E2) | IC50 (CDK4/Cyclin D1) | SMILES
≤ 100 nM | ≤ 100 nM | ≤ 100 nM | Cc1c(-c2nc(N[C@H]3CCN(S(C)(=O)=O)C[C@H]3C)ncc2F)sc2c1C(=O)NC2(C)C [Example 1, 2-(5-Fluoro-2-(((3R,4S)-3-methyl-1-(methylsulfonyl)piperidin-4-yl)amino)pyrimidin-4-yl)-3,6,6-trimethyl-5,6-dihydro-4H-thieno[2,3-c]pyrrol-4-one]
≤ 100 nM | ≤ 100 nM | ≤ 100 nM | Cc1c(-c2nc(N[C@H]3CCN(S(C)(=O)=O)C[C@H]3F)ncc2F)sc2c1C(=O)NC2(C)C [Example 2, 2-(5-fluoro-2-(((3R,4S)-3-fluoro-1-(methylsulfonyl)piperidin-4-yl)amino)pyrimidin-4-yl)-3,6,6-trimethyl-5,6-dihydro-4H-thieno[2,3-c]pyrrol-4-one]
≤ 100 nM | ≤ 100 nM | ≤ 100 nM | Cc1c(-c2nc(NC3CCN(S(C)(=O)=O)CC3)ncc2F)sc2c1C(=O)NC2(C)C [Example 3, 2-(5-fluoro-2-((1-(methylsulfonyl)piperidin-4-yl)amino)pyrimidin-4-yl)-3,6,6-trimethyl-5,6-dihydro-4H-thieno[2,3-c]pyrrol-4-one]
≤ 100 nM | ≤ 100 nM | – | Cc1c(-c2nc(NC3CCN(S(C)(=O)=O)CC3)ncc2F)sc2c1C(=O)NC2 [Example 4, 2-(5-fluoro-2-((1-(methylsulfonyl)piperidin-4-yl)amino)pyrimidin-4-yl)-3-methyl-5,6-dihydro-4H-thieno [2,3-c]pyrrol-4-one]
≤ 100 nM | ≤ 100 nM | – | Cc1c(-c2nc(N[C@H]3CCN(S(C)(=O)=O)C[C@H]3C)ncc2F)sc2c1C(=O)NC2 [Example 5, 2-(5-Fluoro-2-(((3R,4S)-3-methyl-1-(methylsulfonyl)piperidin-4-yl)amino)pyrimidin-4-yl)-3-methyl-5,6-dihydro-4H-thieno[2,3-c]pyrrol-4-one]
≤ 100 nM | ≤ 100 nM | ≤ 100 nM | C[C@@H]1CN(S(C)(=O)=O)CC[C@@H]1Nc1ncc(C(F)(F)F)c(-c2cc3c(s2)C(C)(C)NC3=O)n1 [Example 6, 6,6-Dimethyl-2-(2-(((3R,4S)-3-methyl-1-(methylsulfonyl)piperidin-4-yl)amino)-5-(trifluoromethyl)pyrimidin-4-yl)-5,6-dihydro-4H-thieno[2,3-c]pyrrol-4-one]
≤ 100 nM | ≤ 100 nM | ≤ 100 nM | C[C@@H]1CN(S(=O)(=O)c2cnn(C)c2)CC[C@@H]1Nc1ncc(C(F)(F)F)c(-c2cc3c(s2)C(C)(C)NC3=O)n1 [Example 7, 6,6-dimethyl-2-(2-(((3R,4S)-3-methyl-1-((1-methyl-1H-pyrazol-4-yl)sulfonyl)piperidin-4-yl)amino)-5-(trifluoromethyl)pyrimidin-4-yl)-5,6-dihydro-4H-thieno[2,3-c]pyrrol-4-one]
≤ 100 nM | ≤ 100 nM | ≤ 100 nM | C[C@@H]1CN(S(=O)(=O)c2cn(C)cn2)CC[C@@H]1Nc1ncc(C(F)(F)F)c(-c2cc3c(s2)C(C)(C)NC3=O)n1 [Example 8, 6,6-dimethyl-2-(2-(((3R,4S)-3-methyl-1-((1-methyl-1H-imidazol-4-yl)sulfonyl)piperidin-4-yl)amino)-5-(trifluoromethyl)pyrimidin-4-yl)-5,6-dihydro-4H-thieno[2,3-c]pyrrol-4-one]
≤ 100 nM | ≤ 100 nM | ≤ 100 nM | C[C@@H]1CN(S(=O)(=O)c2cn[nH]c2)CC[C@@H]1Nc1ncc(C(F)(F)F)c(-c2cc3c(s2)C(C)(C)NC3=O)n1 [Example 9, 2-(2-(((3R,4S)-1-((1H-pyrazol-4-yl)sulfonyl)-3-methylpiperidin-4-yl)amino)-5-(trifluoro-methyl)pyrimidin-4-yl)-6,6-dimethyl-5,6-dihydro-4H-thieno[2,3-c]pyrrol-4-one]
≤ 100 nM | ≤ 100 nM | ≤ 100 nM | C[C@@H]1CN(S(=O)(=O)c2c[nH]cn2)CC[C@@H]1Nc1ncc(C(F)(F)F)c(-c2cc3c(s2)C(C)(C)NC3=O)n1 [Example 10, 2-(2-(((3R,4S)-1-((1H-imidazol-4-yl)sulfonyl)-3-methylpiperidin-4-yl)amino)-5-(trifluoro-methyl)pyrimidin-4-yl)-6,6-dimethyl-5,6-dihydro-4H-thieno[2,3-c]pyrrol-4-one]
≤ 100 nM | ≤ 100 nM | ≤ 100 nM | Cn1cc(S(=O)(=O)N2CCC(Nc3ncc(C(F)(F)F)c(-c4cc5c(s4)C(C)(C)NC5=O)n3)CC2)cn1 [Example 11, 6,6-dimethyl-2-(2-((1-((1-methyl-1H-pyrazol-4-yl)sulfonyl)piperidin-4-yl)amino)-5-(trifluoro-methyl)pyrimidin-4-yl)-5,6-dihydro-4H-thieno[2,3-c]pyrrol-4-one]
≤ 100 nM | ≤ 100 nM | ≤ 100 nM | CC1(C)NC(=O)c2cc(-c3nc(NC4CCN(S(C)(=O)=O)CC4)ncc3C(F)(F)F)sc21 [Example 12, 6,6-dimethyl-2-(2-((1-(methylsulfonyl)piperidin-4-yl)amino)-5-(trifluoro-methyl)pyrimidin-4-yl)-5,6-dihydro-4H-thieno[2,3-c] pyrrol-4-one]
100 to 500 nM | ≤ 100 nM | – | C[C@@H]1CN(S(C)(=O)=O)CC[C@@H]1Nc1ncc(C(F)(F)F)c(-c2cc3c(s2)CNC3=O)n1 [Example 18, 2-(2-(((3R,4S)-3-methyl-1-(methylsulfonyl)piperidin-4-yl)amino)-5-(trifluoro-methyl)pyrimidin-4-yl)-5,6-dihydro-4H-thieno[2,3-c]pyrrol-4-one]
≤ 100 nM | ≤ 100 nM | – | CS(=O)(=O)N1CC[C@H](Nc2ncc(C(F)(F)F)c(-c3cc4c(s3)CNC4=O)n2)[C@H](F)C1 [Example 19, 2-(2-(((3R,4S)-3-fluoro-1-(methylsulfonyl)piperidin-4-yl)amino)-5-(trifluoro-methyl)pyrimidin-4-yl)-5,6-dihydro-4H-thieno[2,3-c]pyrrol-4-one]
≤ 100 nM | ≤ 100 nM | – | O=C1NCc2sc(-c3nc(N[C@H]4CCN(S(=O)(=O)c5cn[nH]c5)C[C@H]4F)ncc3C(F)(F)F)cc21 [Example 22, 2-(2-(((3R,4S)-1-((1H-pyrazol-4-yl)sulfonyl)-3-fluoropiperidin-4-yl)amino)-5-(trifluoromethyl)pyrimidin-4-yl)-5,6-dihydro-4H-thieno[2,3-c]pyrrol-4-one]
